A word on the Ki: it is a measure of affinity in units of concentration, obtained from inhibition or displacement.

A value given as a limit tells only on which side of the number the result lay.

The record followed here is US11053242B2, “[9,10-dimethoxy-3-(2-methylpropyl)-1H,2H,3H,4H,6H,7H,11BH-pyrido-[2,1-a]isoquinolin-2-yl]methanol and compounds, compositions and methods relating thereto” (Neurocrine Biosciences, Inc., priority 2015, dated 2021).

Series [1] concerns the target VMAT2 (human platelet homogenate) (Homo sapiens (Human), UniProt Q05940). Kind of series: Human VMAT2 Ki, slightly modified competition binding procedure (Table 11).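 Further: competition binding with 90 min incubation at 25 °C, after which filter-retained radioligand was measured by scintillation counting.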 As to conditions: 10 nM 3H-dihydrotetrabenazine.
Procedure: Following incubation at 25° C. for 90 minutes, bound radioligand was collected by rapid filtration onto GF/B glass fiber filters using a Unifilter-96 Harvester (PerkinElmer). Filter plates were pre-treated with 0.1% polyethylenimine and allowed to dry overnight, and following harvesting the filter plates were washed with 800 d VMAT2 binding buffer. Bound radioligand was quantified by scintillation counting using a Topcount NXT (PerkinElmer).
The nature of series [2]: In vitro human intestinal S9 hydrolysis assay (formation of compound 1-1). The conditions noted are these: human intestinal S9, 1 uM, 37° C., up to 60 minutes.
Procedure: Compounds (1 uM) were incubated with pooled intestinal S9 subcellular preparations (0.5 mg/mL total protein) from SD rats and humans without the addition of protease inhibitor phenylmethylsulfonylflouride. Incubations were carried out in a potassium phosphate buffer (50 mM). All concentrations were relative to the final incubation volume of 125 uL. Incubations were conducted at 37° C. for 0, 5, 10, 20, 40 and 60 minutes in a water bath and terminated by rapid mixing with 150 uL of ice-cold acetonitrile containing 1% formic acid. Internal standard was added and proteins were precipitated and removed by centrifugation prior to LC/MS analysis.

Sequence of VMAT2 (human platelet homogenate) (Q05940 whole entry): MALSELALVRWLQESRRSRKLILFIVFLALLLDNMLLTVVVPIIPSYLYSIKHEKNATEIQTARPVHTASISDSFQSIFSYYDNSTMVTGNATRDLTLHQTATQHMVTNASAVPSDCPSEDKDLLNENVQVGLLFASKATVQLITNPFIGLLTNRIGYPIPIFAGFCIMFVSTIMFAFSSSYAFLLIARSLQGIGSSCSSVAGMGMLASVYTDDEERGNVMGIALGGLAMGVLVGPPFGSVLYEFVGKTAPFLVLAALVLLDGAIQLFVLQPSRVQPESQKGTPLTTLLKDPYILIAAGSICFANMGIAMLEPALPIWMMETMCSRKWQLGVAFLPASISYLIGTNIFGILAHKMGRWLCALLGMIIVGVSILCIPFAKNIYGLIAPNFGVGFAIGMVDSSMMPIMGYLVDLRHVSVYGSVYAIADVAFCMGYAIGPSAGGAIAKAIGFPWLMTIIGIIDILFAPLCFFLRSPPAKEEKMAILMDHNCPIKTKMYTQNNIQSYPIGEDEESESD

`COc1cc2c(cc1OC)[C@H]1C[C@@H](COC(=O)NC[C@@H](CC(=O)O)CC(C)C)[C@H](CC(C)C)CN1CC2` [Compound 5-19, (3R)-3-{[({[(2R,3S,11bR)-9,10-dimethoxy-3-(2-methylpropyl)-1H,2H,3H,4H,6H,7H,11bH-pyrido[2,1-a]isoquinolin-2-yl]methoxy}carbonyl)amino]methyl}-5-methylhexanoic acid] registered a Ki in series [1] of 10 to 500 nM. Further, in series [2], the “S9 Assay (ability to form compound 1-1)” value is given as “+”.
The corresponding values for `COc1cc2c(cc1OC)[C@H]1C[C@@H](COC(=O)N[C@@H](CC(C)C)C(=O)O)[C@H](CC(C)C)CN1CC2` [Compound 5-20, (2S)-2-[({[(2R,3S,11bR)-9,10-dimethoxy-3-(2-methylpropyl)-1H,2H,3H,4H,6H,7H,11bH-pyrido[2,1-a]isoquinolin-2-yl]methoxy}carbonyl)amino]-4-methylpentanoic acid] are 10 to 500 nM and “++”.
As for `COc1cc2c(cc1OC)[C@H]1C[C@@H](COC(=O)NC3(C(=O)O)CCCCC3)[C@H](CC(C)C)CN1CC2` [Compound 5-23, l-[({[(2R,3S,11bR)-9,10-dimethoxy-3-(2-methylpropyl)-1H,2H,3H,4H,6H,7H,11bH-pyrido[2,1-a]isoquinolin-2-yl]methoxy}carbonyl)amino]cyclohexane-1-carboxylic acid], the Ki in series [1] lay within 10 to 500 nM. In addition, in series [2], the “S9 Assay (ability to form compound 1-1)” value was “++”.
The corresponding values for `COc1cc2c(cc1OC)[C@H]1C[C@@H](COC(=O)N(C)CCCC(=O)O)[C@H](CC(C)C)CN1CC2` [Compound 5-25, 4-[({[(2R,3S,11bR)-9,10-dimethoxy-3-(2-methylpropyl)-1H,2H,3H,4H,6H,7H,11bH-pyrido[2,1-a]isoquinolin-2-yl]methoxy}carbonyl)(methyl)amino]butanoic acid] are > 500 nM and “+”.
The corresponding values for `COc1cc2c(cc1OC)[C@H]1C[C@@H](COC(=O)NC(C)CC(=O)O)[C@H](CC(C)C)CN1CC2` (stereo partly drawn) [Compound 5-26, 3-[({[(2R,3S,11bR)-9,10-dimethoxy-3-(2-methylpropyl)-1H,2H,3H,4H,6H,7H,11bH-pyrido[2,1-a]isoquinolin-2-yl]methoxy}carbonyl)amino]butanoic acid] are > 500 nM and “+”.
The corresponding values for `COc1cc2c(cc1OC)[C@H]1C[C@@H](COC(=O)N3CC(C(=O)O)C3)[C@H](CC(C)C)CN1CC2` [Compound 5-27, 1-({[(2R,3S,11bR)-9,10-dimethoxy-3-(2-methylpropyl)-1H,2H,3H,4H,6H,7H,11bH-pyrido[2,1-a]isoquinolin-2-yl]methoxy}carbonyl)azetidine-3-carboxylic acid] are > 500 nM and “+”.
On to `COc1cc2c(cc1OC)[C@H]1C[C@@H](COC(=O)NCC(=O)O)[C@H](CC(C)C)CN1CC2` [Compound 5-30], for which the Ki in series [1] is > 500 nM. In series [2], the “S9 Assay (ability to form compound 1-1)” value was “+”.
The corresponding values for `COc1cc2c(cc1OC)[C@H]1C[C@@H](COC(=O)N(C)C(C(=O)O)C(C)C)[C@H](CC(C)C)CN1CC2` (stereo partly drawn) [Compound 5-32, 2-[({[(2R,3S,11bR)-9,10-dimethoxy-3-(2-methylpropyl)-1H,2H,3H,4H,6H,7H,11bH-pyrido[2,1-a]isoquinolin-2-yl]methoxy}carbonyl)(methyl)amino]-3-methylbutanoic acid] are < 10 nM and “++”.
Regarding `COc1cc2c(cc1OC)[C@H]1C[C@@H](COC(=O)NCC3(CC(=O)O)CCCCC3)[C@H](CC(C)C)CN1CC2` [Compound 5-34, 2-(1-{[({[(2R,3S,11bR)-9,10-dimethoxy-3-(2-methylpropyl)-1H,2H,3H,4H,6H,7H,11bH-pyrido[2,1-a]isoquinolin-2-yl]methoxy}carbonyl)amino]methyl}cyclohexyl)acetic acid], the Ki in series [1] lay in the range of 10 to 500 nM. Further, in series [2], the “S9 Assay (ability to form compound 1-1)” value is reported as “+”.
The corresponding values for `COc1cc2c(cc1OC)[C@H]1C[C@@H](COC(=O)NC3(C(=O)O)CCCC3)[C@H](CC(C)C)CN1CC2` [Compound 5-39, 1-[({[(2R,3S,11bR)-9,10-dimethoxy-3-(2-methylpropyl)-1H,2H,3H,4H,6H,7H,11bH-pyrido[2,1-a]isoquinolin-2-yl]methoxy}carbonyl)amino]cyclopentane-1-carboxylic acid] are 10 to 500 nM and “+++”.
`COc1cc2c(cc1OC)[C@H]1C[C@@H](COC(=O)NC3C4CCC(C4)C3C(=O)O)[C@H](CC(C)C)CN1CC2` (stereo partly drawn) [Compound 5-40, 3-[({[(2R,3S,11bR)-9,10-dimethoxy-3-(2-methylpropyl)-1H,2H,3H,4H,6H,7H,11bH-pyrido[2,l-a]isoquinolin-2-yl]methoxy}carbonyl)amino]bicyclo[2.2.1]heptane-2-carboxylic acid] displayed a Ki in series [1] of 10 to 500 nM. Also, in series [2], the “S9 Assay (ability to form compound 1-1)” value is given as “+”.
The corresponding values for `COc1cc2c(cc1OC)[C@H]1C[C@@H](COC(=O)NC3CCCCC3C(=O)O)[C@H](CC(C)C)CN1CC2` (stereo partly drawn) [Compound 5-41, 2-[({[(2R,3S,11bR)-9,10-dimethoxy-3-(2-methylpropyl)-1H,2H,3H,4H,6H,7H,11bH-pyrido[2,1-a]isoquinolin-2-yl]methoxy}carbonyl)amino]cyclohexane-1-carboxylic acid] are 10 to 500 nM and “+”.
The corresponding values for `COc1cc2c(cc1OC)[C@H]1C[C@@H](COC(=O)N(C)CC(=O)O)[C@H](CC(C)C)CN1CC2` [Compound 5-42, 2-[({[(2R,3S,11bR)-9,10-dimethoxy-3-(2-methylpropyl)-1H,2H,3H,4H,6H,7H,11bH-pyrido[2,1-a]isoquinolin-2-yl]methoxy}carbonyl)(methyl)amino]acetic acid] are 10 to 500 nM and “++”.
Take `COc1cc2c(cc1OC)[C@H]1C[C@@H](COC(=O)N3CCC(C(=O)O)(N(C)C)CC3)[C@H](CC(C)C)CN1CC2` [Compound 5-43, 1-({[(2R,3S,11bR)-9,10-dimethoxy-3-(2-methylpropyl)-1H,2H,3H,4H,6H,7H,11bH-pyrido[2,1-a]isoquinolin-2-yl]methoxy}carbonyl)-4-(dimethylamino)piperidine-4-carboxylic acid]: the Ki in series [1] was > 500 nM. In addition, in series [2], the “S9 Assay (ability to form compound 1-1)” value is listed as “+”.
In the case of `COc1cc2c(cc1OC)[C@H]1C[C@@H](COC(=O)N(C)C(CC(C)C)C(=O)O)[C@H](CC(C)C)CN1CC2` (stereo partly drawn) [Compound 5-46, 2-[({[(2R,3S,11bR)-9,10-dimethoxy-3-(2-methylpropyl)-1H,2H,3H,4H,6H,7H,11bH-pyrido[2,1-a]isoquinolin-2-yl]methoxy}carbonyl)(methyl)amino]-4-methylpentanoic acid], the Ki in series [1] was > 500 nM. For the same molecule, the “S9 Assay (ability to form compound 1-1)” value in series [2] is reported as “++”.
The corresponding values for `COc1cc2c(cc1OC)[C@H]1C[C@@H](COC(=O)N[C@@H](C)C(=O)O)[C@H](CC(C)C)CN1CC2` [Compound 5-47, (2S)-2-[({[(2R,3S,11bR)-9,10-dimethoxy-3-(2-methylpropyl)-1H,2H,3H,4H,6H,7H,11bH-pyrido[2,1-a]isoquinolin-2-yl]methoxy}carbonyl)amino]propanoic acid] are 10 to 500 nM and “+”.
